Data taken from article PMC9119131, “Fragile protein folds: sequence and environmental factors affecting the equilibrium of two interconverting, stably folded protein conformations” (Magnetic resonance, 2021).

Key:
[1] = molecular target: T1, ARNT PAS-B (aryl hydrocarbon receptor nuclear translocator) (Homo sapiens, UniProt P27540, Y456T); assay: […]/1H HSQC NMR titration ([…]/1H HSQC titration also gave Kd […]); type: binding
T1 construct: PAS-B domain, residues 356–470 (with N-terminal GAMD cloning artifact)

[2] = molecular target: T1, ARNT PAS-B (aryl hydrocarbon receptor nuclear translocator); assay: […]/1H HSQC NMR titration (L391 δ[…] methyl); type: binding

T1 sequence (P27540 356-470 Y456T): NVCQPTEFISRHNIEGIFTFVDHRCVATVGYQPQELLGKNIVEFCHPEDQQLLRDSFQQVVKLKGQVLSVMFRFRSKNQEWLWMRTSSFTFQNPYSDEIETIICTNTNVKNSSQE

SMILES	Kd [1]	Kd [2]
FC(F)(F)c1cc(-c2nn[nH]n2)cc(C(F)(F)F)c1 [KG-548, 5-(3,5-bis(trifluoromethyl)phenyl)tetrazole]	684 ± 33.1 µM	
Oc1cc(C(F)(F)F)cc(C(F)(F)F)c1 [KG-655, 3,5-bis(trifluoromethyl)phenol]		1950 ± 152 µM
